{"source": "patent US10266537B2", "about": "“3-acetylenyl-pyrazole-pyrimidine derivative, and preparation method therefor and uses thereof” (Si Chuan University, priority 2015, dated 2019)", "key": {"[1]": {"system": "MDA-MB-435", "assay": "Cell proliferation inhibition assay (MTT)", "assay_type": "cell-based, human", "conditions": "Homo sapiens; MDA-MB-435; MTT, 72 hours; read-out: Proliferative inhibitory activity MDA-MB-435 (IC50 class)", "description": "The remaining cell lines were cultured in DMEM complete medium containing 10% fetal bovine serum (MV4-11 cells 20%), 100 U/ml penicillin, 100 μg/mL streptomycin at 5% CO2, and 37° C.\nThe cells were seeded in 96-well plates with 200 μL of cell suspension per well and incubated overnight in a cell culture medium with a cell concentration of 1˜2×10^4 cells/mL. The next day, the supernatant was discarded (the suspension cell was centrifuged before it) and the cells were treated with gradient concentrations of the test compound, respectively. At the same time, the drug-free negative control group and the equal volume of solvent control group, DMSO concentration of 0.1%, each dose group set up three wells, 37° C., 5% CO2 conditions. After 72 hours, add 20 μL of MTT reagent at a concentration of 5 mg/mL per well. After incubation for 2-4 h, the supernatant was discarded and 150 μL of DMSO was added to each well. […] Determine the absorbance (A) value (λ=570 nm, A value is proportional to the number of living cells), whichever is the average. […] The experiment was repeated at least 3 times. Experimental data were expressed as mean, data statistics using t test, P<0.05 for the difference was statistically significant. The inhibitory effects of the following compounds on cell proliferation were expressed as IC50 or inhibition rates."}, "[2]": {"system": "MDA-MB-231", "assay": "Cell proliferation inhibition assay (MTT)", "assay_type": "cell-based, human", "conditions": "Homo sapiens; MDA-MB-231; MTT, 72 hours; read-out: Proliferative inhibitory activity MDA-MB-231 (IC50 class)"}}}
{"smiles": "Cc1ccc(NC(=O)c2ccc(Cl)c(C(F)(F)F)c2)cc1C#Cc1nn(C2CCCN(C(=O)[C@@H](C)O)C2)c2ncnc(N)c12", "note": "(stereo partly shown) [Compound 87]", "values": [{"measurement": "IC50", "setting": "[1]", "value": "> 1000", "unit": "nM"}, {"measurement": "IC50", "setting": "[2]", "value": "< 100", "unit": "nM"}]}
{"smiles": "Cc1ccc(NC(=O)c2ccc(C)c(C(F)(F)F)c2)cc1C#Cc1nn(CC2CCN(C)C2)c2ncnc(N)c12", "note": "(stereo not shown) [Compound 98]", "values": [{"measurement": "IC50", "setting": "[1]", "value": "< 100", "unit": "nM"}, {"measurement": "IC50", "setting": "[2]", "value": "< 100", "unit": "nM"}]}
{"smiles": "Cc1ccc(NC(=O)c2ccc(C)c(C(F)(F)F)c2)cc1C#Cc1nn(CC2CCN(C)CC2)c2ncnc(N)c12", "note": "[Compound 115]", "values": [{"measurement": "IC50", "setting": "[1]", "value": "100 to 500", "unit": "nM"}, {"measurement": "IC50", "setting": "[2]", "value": "< 100", "unit": "nM"}]}
{"smiles": "Cc1ccc(NC(=O)c2cccc(C(F)(F)F)n2)cc1C#Cc1nn(C2CCN(C)CC2)c2ncnc(N)c12", "note": "[Compound 57]", "values": [{"measurement": "IC50", "setting": "[1]", "value": "> 1000", "unit": "nM"}, {"measurement": "IC50", "setting": "[2]", "value": "500 to 1000", "unit": "nM"}]}
{"smiles": "Cc1ccc(NC(=O)c2cccc(C(F)(F)F)c2)cc1C#Cc1nn(C[C@H](C)CO)c2ncnc(N)c12", "note": "[Compound 111]", "values": [{"measurement": "IC50", "setting": "[1]", "value": "< 100", "unit": "nM"}, {"measurement": "IC50", "setting": "[2]", "value": "< 100", "unit": "nM"}]}
{"smiles": "Cc1ccc(NC(=O)c2ccc(Cl)c(C(F)(F)F)c2)cc1C#Cc1nn(C2CCN(C(=O)[C@@H](C)O)CC2)c2ncnc(N)c12", "note": "[Compound 71]", "values": [{"measurement": "IC50", "setting": "[1]", "value": "< 100", "unit": "nM"}, {"measurement": "IC50", "setting": "[2]", "value": "< 100", "unit": "nM"}]}
{"smiles": "Cc1ccc(NC(=O)c2cccc(C(C)(C)C)c2)cc1C#Cc1nn([C@H]2CC[C@H](O)CC2)c2ncnc(N)c12", "note": "[Compound 118]", "values": [{"measurement": "IC50", "setting": "[1]", "value": "< 100", "unit": "nM"}, {"measurement": "IC50", "setting": "[2]", "value": "< 100", "unit": "nM"}]}
{"smiles": "Cc1ccc(NC(=O)c2cccc(F)c2)cc1C#Cc1nn(C2CCN(C)CC2)c2ncnc(N)c12", "note": "[Compound 45]", "values": [{"measurement": "IC50", "setting": "[1]", "value": "> 1000", "unit": "nM"}, {"measurement": "IC50", "setting": "[2]", "value": "500 to 1000", "unit": "nM"}]}
{"smiles": "Cc1ccc(NC(=O)c2nc(C(C)(C)C)cs2)cc1C#Cc1nn([C@@H]2CCN(C)C2)c2ncnc(N)c12", "note": "[Compound 97]", "values": [{"measurement": "IC50", "setting": "[1]", "value": "100 to 500", "unit": "nM"}, {"measurement": "IC50", "setting": "[2]", "value": "100 to 500", "unit": "nM"}]}
{"smiles": "Cc1ccc(NC(=O)c2cccc(OC(F)(F)F)c2)cc1C#Cc1nn(C2CCN(C)CC2)c2ncnc(N)c12", "note": "[Compound 52]", "values": [{"measurement": "IC50", "setting": "[1]", "value": "< 100", "unit": "nM"}, {"measurement": "IC50", "setting": "[2]", "value": "< 100", "unit": "nM"}]}
{"smiles": "Cc1ccc(NC(=O)c2ccc(Cl)c(C(F)(F)F)c2)cc1C#Cc1nn([C@@H]2CCCN(S(C)(=O)=O)C2)c2ncnc(N)c12", "note": "[Compound 90]", "values": [{"measurement": "IC50", "setting": "[1]", "value": "500 to 1000", "unit": "nM"}, {"measurement": "IC50", "setting": "[2]", "value": "< 100", "unit": "nM"}]}
{"smiles": "Cc1ccc(NC(=O)c2cc(C(F)(F)F)ccc2F)cc1C#Cc1nn(C2CCN(C)CC2)c2ncnc(N)c12", "note": "[Compound 50]", "values": [{"measurement": "IC50", "setting": "[1]", "value": "100 to 500", "unit": "nM"}, {"measurement": "IC50", "setting": "[2]", "value": "100 to 500", "unit": "nM"}]}
{"smiles": "CN1CCC(n2nc(C#Cc3cccc(NC(=O)Nc4cccc(C(F)(F)F)c4)c3)c3c(N)ncnc32)CC1", "note": "[Compound 39]", "values": [{"measurement": "IC50", "setting": "[1]", "value": "500 to 1000", "unit": "nM"}, {"measurement": "IC50", "setting": "[2]", "value": "> 1000", "unit": "nM"}]}
{"smiles": "Cc1ccc(NC(=O)c2ccc(Cl)c(C(F)(F)F)c2)cc1C#Cc1nn(CC2CCN(S(C)(=O)=O)CC2)c2ncnc(N)c12", "note": "[Compound 75]", "values": [{"measurement": "IC50", "setting": "[1]", "value": "> 1000", "unit": "nM"}, {"measurement": "IC50", "setting": "[2]", "value": "100 to 500", "unit": "nM"}]}
{"smiles": "Cc1ccc(NC(=O)c2ccc(Cl)c(C(F)(F)F)c2)cc1C#Cc1nn(C2CCC(O)CC2)c2ncnc(N)c12", "note": "(stereo not shown) [Compound 74]", "values": [{"measurement": "IC50", "setting": "[1]", "value": "< 100", "unit": "nM"}, {"measurement": "IC50", "setting": "[2]", "value": "< 100", "unit": "nM"}]}
{"smiles": "Cc1ccc(NC(=O)c2ccc(C(F)(F)F)cc2)cc1C#Cc1nn(C2CCN(C)CC2)c2ncnc(N)c12", "note": "[Compound 41]", "values": [{"measurement": "IC50", "setting": "[1]", "value": "> 1000", "unit": "nM"}, {"measurement": "IC50", "setting": "[2]", "value": "500 to 1000", "unit": "nM"}]}
{"smiles": "Cc1ccc(NC(=O)c2ccc(Cl)c(C(F)(F)F)c2)cc1C#Cc1nn(C2CCCN(C)C2)c2ncnc(N)c12", "note": "(stereo not shown) [Compound 92]", "values": [{"measurement": "IC50", "setting": "[1]", "value": "100 to 500", "unit": "nM"}, {"measurement": "IC50", "setting": "[2]", "value": "< 100", "unit": "nM"}]}
{"smiles": "Cc1ccc(C(=O)Nc2cccc(C(F)(F)F)c2)cc1C#Cc1nn(CC2CCN(C)CC2)c2ncnc(N)c12", "note": "[Compound 109]", "values": [{"measurement": "IC50", "setting": "[1]", "value": "< 100", "unit": "nM"}, {"measurement": "IC50", "setting": "[2]", "value": "< 100", "unit": "nM"}]}
{"smiles": "COc1cccc(C(=O)Nc2ccc(C)c(C#Cc3nn(C4CCN(C)CC4)c4ncnc(N)c34)c2)c1", "note": "[Compound 44]", "values": [{"measurement": "IC50", "setting": "[1]", "value": "100 to 500", "unit": "nM"}, {"measurement": "IC50", "setting": "[2]", "value": "100 to 500", "unit": "nM"}]}
{"smiles": "CN1CCC(n2nc(C#Cc3cc(C(=O)Nc4cccc(C(F)(F)F)c4)ccc3Cl)c3c(N)ncnc32)CC1", "note": "[Compound 38]", "values": [{"measurement": "IC50", "setting": "[1]", "value": "100 to 500", "unit": "nM"}, {"measurement": "IC50", "setting": "[2]", "value": "500 to 1000", "unit": "nM"}]}
